In patent publication US11382889B2, “NRF2 activators for the prevention and/or treatment of axonal degeneration” (priority 2018, dated 2022):
Structures can show the parent of a compound that is named as a salt.

Assays:
[1] = system: NRF2; experiment: NRF2 protein levels and NRF2-target gene expression in Abcd1− mice spinal cord after dietary DMF; assay type: in vivo; settings: 12 months of age, DMF 100 mg/kg/day in chow for 4 months
Text: a) NRF2 protein levels in WT (n=6), Abcd1^− (n=6) and DMF-treated Abcd1^− mice (Abcd1^−+DMF, n=6) mice spinal cord at 12 months of age. Protein levels were normalized relative to γ-TUB and quantification is depicted as fold change to WT (Wild type) mice. b) NRF2-dependent antioxidative genes (Hmox1, Nqo1 and Gst α 3) expression in WT (n=8), Abcd1^− (n=8) and Abcd1^−+DMF (n=8) mice spinal cord at 12 months of age. Gene expression levels were normalized relative to Rplp0. Quantification is represented as fold change to WT mice. c) Mitochondrial DNA (mtDNA) levels in WT (n=8), Abcd1^− (n=8) and Abcd1^−+DMF (n=8) mice spinal cord at 12 months of age. mtDNA content was measured by quantitative RT-PCR and expressed as the ratio of mtDNA (CytB levels) to nuclear DNA (nDNA, Cebpa levels). Quantification is depicted as fold change to WT mice. d) Sirt1, Pgc-1α, Nrf1 and Tfam expression was measured by quantitative RT-PCR in WT (n=8), Abcd1^− (n=8) and Abcd1^−+DMF (n=8) mice spinal cord at 12 months of age. Gene expression levels were normalized relative to Rplp0. Quantification is depicted as fold change to WT mice. e) ATP levels in WT (n=8), Abcd1^− (n=8) and Abcd1^−+DMF (n=8) mice spinal cord at 12 months of age. Quantification is represented as fold change to WT mice. […]

[2] = system: Abcd1− mice spinal cord; experiment: Inflammatory profile (quantitative RT-PCR) and oxidative lesions (GC/MS) in Abcd1− mice spinal cord; assay type: in vivo; settings: 12 months of age
Experimental: a) Th1 (Nfκb2, Il1β, Il6, Tnfα, Tnfrsf1a, Ccl5, Cxcl9, Cxcl10, Ccr6) and b) Th2 (Fizz1, Chil3, Cxcl12, Il10, Igf1, Mif, Tgfβ1) inflammatory profile in WT (n=8), Abcd1^− (n=8) and Abcd1^−+DMF (n=8) mice spinal cord at 12 months of age. Cytokines, chemokines and other inflammation-related genes expression was measured by quantitative RT-PCR. Gene expression levels were normalized relative to Rplp0. Quantification is depicted as fold change to WT mice. c) Oxidative lesions to lipids and proteins in WT (n=5), Abcd1^− (n=5) and Abcd1^−+DMF (n=5) mice spinal cord at 12 months of age. AASA, CEL, CML and MDAL levels were measured by GC/MS. Quantification is represented as fold change to WT mice. Data are shown as mean±SD (*p<0.05, **p<0.01, ***p<0.001 after one-way ANOVA test followed by Tukey's post-hoc test; p<0.05, p<0.01, p<0.001 after non-parametric Kruskal-Wallis' test).
Cages contained 3 to 5 animals.
We used two X-ALD mouse models in this study. We characterized the biochemical signs of adult X-ALD in Abcd1^− mice at 12 months of age. These mice show biochemical signs of pathology, including oxidative stress and energetic homeostasis impairment, before the first clinical signs of AMN-like pathology (axonopathy and locomotor impairment) appear at 20 months.
For biochemical analysis, we killed the mice and stored the tissues at −80° C. after snap-freezing them in liquid nitrogen. For histological analysis, spinal cord was harvested from 18-month-old mice after perfusing them with 4% paraformaldehyde (PFA; Sigma-Aldrich, Ref. 441244) in 0.1 M phosphate buffer pH 7.4. Histological and behavioural tests were performed in a blind way with respect to the animal's genotype and for the treatment administered.
In Abcd1^− mouse, a functional genomics assay detected NFκB-mediated inflammatory pathway activation in Abcd1^− mouse spinal cord, and increased expression of several proinflammatory genes. Regarding AMN patients, we have recently described a general dysregulation of inflammatory pathways in peripheral blood mononuclear cells (PBMCs) and plasma from AMN patients. As DMF is a classical immunomodulatory drug, we examined its effects on mRNA expression of several inflammation-related genes in Abcd1^− mice spinal cord.
Nuclear factor kappa B subunit 2 (Nfκb2), which belongs to the non-canonical NFκB pathway, as well as the majority of M1 markers were increased in Abcd1^− mouse spinal cord, including interleukin 1 beta (Il1β), tumour necrosis factor alpha (Tnfα), tumour necrosis factor receptor superfamily member 1a (Tnfrsf1a), chemokine (C-C motif) ligand 5 (Ccl5), chemokine (C-X-C motif) ligand 9 (Cxcl9), chemokine (C-X-C motif) ligand 10 (Cxcl10) and chemokine (C-C motif) receptor type 6 (Ccr6) (FIG. 2a). […] Only few of them were decreased in Abcd1^− mouse spinal cord: interleukin 6 ([…]), resistin like alpha (Retnla, also called Fizz1) and macrophage migration inhibitory factor (Mif) (FIG. 2a-b).

[3] = Abcd1− mouse spinal cord, DMF 100 mg/kg/day in chow

## COC(=O)/C=C/C(=O)OC [DMF, dimethyl fumarate]
[1]
  NRF2 protein levels: induced
  NRF2 target genes expression (Hmox1, Nqo1, Gstα3): induced
[2]; Abcd1− mice spinal cord, DMF 100 mg/kg/day in chow for 4 months
  oxidative damage to proteins and lipids (AASA, CEL, CML, MDAL): prevents
[2]; [3]
  Il1β and Chil3 mRNA: exacerbated the induction
  Tnfrsf1a, Cxcl9 and Fizz1 mRNA: no effect
  interleukin 10 (Il10) mRNA: upregulated
  mRNA levels of Nfκb2, Il6, Tnfα, Ccl5, Cxcl10, Ccr6, Mif, Cxcl12, Tgfβ1, Igf1: normalizing
